Values quoted from earlier work as cited in patent publication US9919015B2, “Composition and method for inhibiting herpesviridae infections” (VIRATEC PTY LTD, priority 2005, dated 2018).
Where two headings read alike, the source gives them in different places.

Experiments:
[1] = tested on: primary herpetic gingivostomatitis; details: Primary Herpetic Stomatitis
[2] = tested on: recurrent herpes labialis; details: treatment commenced within 1 hour; Rabon et al. (1989)
[3] = tested on: recurrent genital herpetic infection; details: for healing rate, oral acyclovir: Nilsen et al. (1982); for healing rate, topical acyclovir: Corey et al. (1982)
[4] = tested on: herpes zoster; details: Esmann et al. (1982); Bean et al (1983)
[5] = tested on: Oral Hairy Leukoplakia (EBV)

Nc1nc2c(ncn2COCCO)c(=O)[nH]1 [Acyclovir, acyclovir]
Expected healing time Acyclovir (upper end) [1]: ≤ 4 weeks | Expected healing time Acyclovir ([1]; treated symptomatically or with acyclovir, listed as acyclovir): 10 to 28 days | complete healing with acyclovir [2]: 7 to 8 days | time to analgesia with acyclovir [2]: 1 to 2 days | healing rate, oral acyclovir [3]: 5 days oral | healing rate, oral acyclovir ([3]; listed as acyclovir): 5 days | healing rate, topical acyclovir [3]: 7.4 days topical | healing rate, topical acyclovir ([3]; listed as acyclovir): 7.4 days | time to initial crusting with acyclovir [4]: 2 to 3 days | response, subjects ([5]; oral acyclovir, after 10 days, Resnick et al (1988)): 5/6 | response time with oral acyclovir ([5]; Herbst et al. (1989), Resnick et al (1988)): 10-20 days - oral | response time with oral acyclovir ([5]; Herbst et al. (1989), Resnick et al (1988), listed as acyclovir): 10 to 20 days | resolution of OHL, subjects ([5]; systemic acyclovir, after 20 days, Herbst et al. (1989)): 12/14
